Data as given in PubChem BioAssay (NCI).
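Compound exposure: 48 hours, 5 concentrations, 96-well plates. TGI is the concentration that stops growth completely.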

Experiments:
Assay in all cases: DTP human tumour cell line panel, 48 h
NCI-H460 lung = tested on: NCI-H460 lung
OVCAR-8 ovarian = tested on: OVCAR-8 ovarian
786-0 renal = tested on: 786-0 renal
SNB-78 CNS = tested on: SNB-78 CNS
NCI-H522 lung = tested on: NCI-H522 lung
DMS 114 small cell lung = tested on: DMS 114 small cell lung
MALME-3M melanoma = tested on: MALME-3M melanoma
RXF 393 renal = tested on: RXF 393 renal
SF-268 CNS = tested on: SF-268 CNS
SK-MEL-28 melanoma = tested on: SK-MEL-28 melanoma
ACHN renal = tested on: ACHN renal
A498 renal = tested on: A498 renal
NCI-H23 lung = tested on: NCI-H23 lung
SF-539 CNS = tested on: SF-539 CNS
HCT-15 colon = tested on: HCT-15 colon
COLO 205 colon = tested on: COLO 205 colon
SK-MEL-5 melanoma = tested on: SK-MEL-5 melanoma
TK-10 renal = tested on: TK-10 renal
DMS 273 small cell lung = tested on: DMS 273 small cell lung
SK-OV-3 ovarian = tested on: SK-OV-3 ovarian
MOLT-4 leukemia = tested on: MOLT-4 leukemia
HT29 colon = tested on: HT29 colon
HCT-116 colon = tested on: HCT-116 colon
NCI-H226 lung = tested on: NCI-H226 lung
U251 CNS = tested on: U251 CNS
HCC-2998 colon = tested on: HCC-2998 colon
SNB-75 CNS = tested on: SNB-75 CNS
IGROV1 ovarian = tested on: IGROV1 ovarian
SF-295 CNS = tested on: SF-295 CNS
CAKI-1 renal = tested on: CAKI-1 renal
M19-MEL melanoma = tested on: M19-MEL melanoma
SR leukemia = tested on: SR leukemia
EKVX NSCLC = tested on: EKVX NSCLC
A549 NSCLC = tested on: A549 NSCLC
SW-620 colon = tested on: SW-620 colon
UACC-257 melanoma = tested on: UACC-257 melanoma
SNB-19 CNS = tested on: SNB-19 CNS
OVCAR-3 ovarian = tested on: OVCAR-3 ovarian
UO-31 renal = tested on: UO-31 renal
M14 melanoma = tested on: M14 melanoma
UACC-62 melanoma = tested on: UACC-62 melanoma
SN12C renal = tested on: SN12C renal
OVCAR-4 ovarian = tested on: OVCAR-4 ovarian
CCRF-CEM leukemia = tested on: CCRF-CEM leukemia
HOP-18 NSCLC = tested on: HOP-18 NSCLC
RXF-631 renal = tested on: RXF-631 renal
KM20L2 colon = tested on: KM20L2 colon
DLD-1 colon = tested on: DLD-1 colon
LXFL 529 NSCLC = tested on: LXFL 529 NSCLC
SK-MEL-2 melanoma = tested on: SK-MEL-2 melanoma
HOP-92 NSCLC = tested on: HOP-92 NSCLC
KM12 colon = tested on: KM12 colon
HL-60(TB) leukemia = tested on: HL-60(TB) leukemia
HOP-62 NSCLC = tested on: HOP-62 NSCLC
OVCAR-5 ovarian = tested on: OVCAR-5 ovarian
LOX IMVI melanoma = tested on: LOX IMVI melanoma
K-562 leukemia = tested on: K-562 leukemia
XF 498 CNS = tested on: XF 498 CNS

Question: What does the source list for `CC(C)c1cccc2sc(NC(=O)C(=O)C(C#N)c3cccc4ccccc34)nc12` (stereo not given)?
Answer: TGI (NCI-H460 lung): > 100 µM; TGI (OVCAR-8 ovarian): > 100 µM; TGI (786-0 renal): > 100 µM; TGI (SNB-78 CNS): > 100 µM; TGI (NCI-H522 lung): > 100 µM; TGI (DMS 114 small cell lung): > 100 µM; TGI (MALME-3M melanoma): > 100 µM; TGI (RXF 393 renal): 92.3 µM; TGI (SF-268 CNS): > 100 µM; TGI (SK-MEL-28 melanoma): > 100 µM; TGI (ACHN renal): > 100 µM; TGI (A498 renal): > 100 µM; TGI (NCI-H23 lung): > 100 µM; TGI (SF-539 CNS): > 100 µM; TGI (HCT-15 colon): > 100 µM; TGI (COLO 205 colon): > 100 µM; TGI (SK-MEL-5 melanoma): > 100 µM; TGI (TK-10 renal): > 100 µM; TGI (DMS 273 small cell lung): > 100 µM; TGI (SK-OV-3 ovarian): > 100 µM; TGI (MOLT-4 leukemia): > 100 µM; TGI (HT29 colon): > 100 µM; TGI (HCT-116 colon): > 100 µM; TGI (NCI-H226 lung): > 100 µM; TGI (U251 CNS): > 100 µM; TGI (HCC-2998 colon): > 100 µM; TGI (SNB-75 CNS): 95.4 µM; TGI (IGROV1 ovarian): > 100 µM; TGI (SF-295 CNS): > 100 µM; TGI (CAKI-1 renal): > 100 µM; TGI (M19-MEL melanoma): > 100 µM; TGI (SR leukemia): > 100 µM; TGI (EKVX NSCLC): 67.2 µM; TGI (A549 NSCLC): > 100 µM; TGI (SW-620 colon): > 100 µM; TGI (UACC-257 melanoma): > 100 µM; TGI (SNB-19 CNS): > 100 µM; TGI (OVCAR-3 ovarian): > 100 µM; TGI (UO-31 renal): > 100 µM; TGI (M14 melanoma): > 100 µM; TGI (UACC-62 melanoma): > 100 µM; TGI (SN12C renal): > 100 µM; TGI (OVCAR-4 ovarian): > 100 µM; TGI (CCRF-CEM leukemia): > 100 µM; TGI (HOP-18 NSCLC): > 100 µM; TGI (RXF-631 renal): > 100 µM; TGI (KM20L2 colon): > 100 µM; TGI (DLD-1 colon): > 100 µM; TGI (LXFL 529 NSCLC): > 100 µM; TGI (SK-MEL-2 melanoma): > 100 µM; TGI (HOP-92 NSCLC): 97.9 µM; TGI (KM12 colon): > 100 µM; TGI (HL-60(TB) leukemia): > 100 µM; TGI (HOP-62 NSCLC): > 100 µM

Question: What does the source list for `CCOC(=O)C(=Cc1cccnc1C)C(=O)OCC`?
Answer: TGI (NCI-H460 lung): 35.8 µM; TGI (OVCAR-8 ovarian): 16.9 µM; TGI (786-0 renal): 20.8 µM; TGI (NCI-H522 lung): 11.7 µM; TGI (DMS 114 small cell lung): 31.3 µM; TGI (MALME-3M melanoma): 26.8 µM; TGI (RXF 393 renal): 9.8 µM; TGI (SF-268 CNS): 31.3 µM; TGI (SK-MEL-28 melanoma): 36.5 µM; TGI (ACHN renal): 29.5 µM; TGI (A498 renal): 31 µM; TGI (NCI-H23 lung): 18.4 µM; TGI (SF-539 CNS): 33.3 µM; TGI (HCT-15 colon): 19.4 µM; TGI (COLO 205 colon): 18.4 µM; TGI (SK-MEL-5 melanoma): 25.1 µM; TGI (TK-10 renal): 25.5 µM; TGI (DMS 273 small cell lung): 14 µM; TGI (SK-OV-3 ovarian): 25 µM; TGI (MOLT-4 leukemia): 46.9 µM; TGI (HT29 colon): 18.4 µM; TGI (HCT-116 colon): 17.9 µM; TGI (NCI-H226 lung): 53.3 µM; TGI (U251 CNS): 18.6 µM; TGI (SNB-75 CNS): 11.8 µM; TGI (IGROV1 ovarian): 25 µM; TGI (SF-295 CNS): 24.2 µM; TGI (CAKI-1 renal): 18.9 µM; TGI (OVCAR-5 ovarian): 31.8 µM; TGI (M19-MEL melanoma): 22.3 µM; TGI (SR leukemia): 26.2 µM; TGI (EKVX NSCLC): 42.1 µM; TGI (A549 NSCLC): 51.3 µM; TGI (SW-620 colon): 17.5 µM; TGI (UACC-257 melanoma): 20.7 µM; TGI (SNB-19 CNS): 23.6 µM; TGI (OVCAR-3 ovarian): 8.67 µM; TGI (LOX IMVI melanoma): 14.2 µM; TGI (UO-31 renal): 17.6 µM; TGI (M14 melanoma): 24.2 µM; TGI (K-562 leukemia): 17.3 µM; TGI (UACC-62 melanoma): 20.1 µM; TGI (SN12C renal): 16.2 µM; TGI (XF 498 CNS): 25.6 µM; TGI (OVCAR-4 ovarian): 27.4 µM; TGI (CCRF-CEM leukemia): > 100 µM; TGI (HOP-18 NSCLC): 21.7 µM; TGI (RXF-631 renal): 39.7 µM; TGI (KM20L2 colon): 10.7 µM; TGI (DLD-1 colon): 47.4 µM; TGI (LXFL 529 NSCLC): 20.2 µM; TGI (SK-MEL-2 melanoma): 16 µM; TGI (HOP-92 NSCLC): 24.5 µM; TGI (KM12 colon): 12.9 µM; TGI (HL-60(TB) leukemia): > 100 µM; TGI (HOP-62 NSCLC): 40.7 µM
